Entries after “also recorded” stand apart in the source; their conditions may differ.
Key:
[1] = system: Caspase 3; assay: Ac-DEVD-AFC caspase-3 protease assay of lung homogenate of RSV infected BALB/c mice; assay type: in vivo; details: oral and subcutaneous DIM, FIG. 5A
Procedure: (§1) The Following Experimental BALB/c Groups and Treatment Protocol Using DIM were Studied: • 1. RSV infected positive control group, infected with RSV and injected subcutaneously (SC) once daily with DMSO/Phosphate Buffered Saline (PBS) vehicle. • 2. RSV infected, Low dose Parenteral DIM group (15 mg/kg/day), injected SC once daily with DIM suspension • 3. RSV infected, High dose DIM Group (150 mg/kg/day), injected SC once daily with DIM suspension • 4. RSV infected, orally treated DIM group (250 mg/kg/day from absorption enhanced DIM [Example 6.1]), added to powdered feed • 5. Uninfected negative control group, nasally administered vehicle only, and injected subcutaneously (SC) once daily with DMSO/PBS vehicle
(§2) Mouse treatment, infection and harvest. Intranasal application of RSV in BALB/c mice followed an established procedure (Bitko et al., 2005, Nat Med. 11(1):50-5) and causes predictable pulmonary disease and inflammation. For RSV infection, RSV stock was diluted such that each mouse was given 10^7 pfu (plaque forming unit) of the virus intranasally. […]

[2] = system: RSV A2; assay: RSV infection in cyclophosphamide pre-treated mice (pulmonary titer, histology); assay type: in vivo; details: cyclophosphomide pre-treated mice; vs vehicle treated placebo group
Description: Another in vivo model of RSV infection has been developed using mice treated with cylphosphamide to induce immune deficiency and create a standardized receptive host for experimental infection (Sudo et al., 1999, Antivir Chem Chemother. 10:135-9). The technique provides for quantitation of pulmonary viral load following induced infection. This model can be used to assess the impact of daily intraperitoneal injections of DIM and/or an EGFR inhibitor drug (Gefitinib or Erlotinib) on in vivo RSV replication and induced pathology.
Alternatively, mice are treated intraperitoneally with 100 mg of cyclophosphamide (CYP) per kg of body weight 5 days before virus inoculation. The mice are weighed, anesthetized with sodium pentobarbital (50 mg/kg), and inoculated intranasally with approximately 10^5 PFU of RSV A2 in 50 μl (day 0). […]
Alternatively, the removed lungs are homogenized with glass homogenizers with a Teflon pestle (Ikemoto Scientific Technology Co., Ltd., Tokyo, Japan) in 4 ml of Hanks balanced salt solution supplemented with 0.218 M sucrose, 4.4 mM glutamate, 3.8 mM KH2PO4, and 3.2 mM K2HPO4 as described previously (Piazza et al., 1993, J. Virol. 67:1503-1510). […] The numbers of RSV plaques are counted.
Histologic methods and evaluation. […] The stained sections are coded by number and are evaluated blind as to the previous treatment. […]

[3] = system: RSV Long strain; assay: Respiratory rate in RSV infected BALB/c mice; assay type: in vivo; details: oral, SC low dose and SC high dose DIM; 6 and 10 days pi; vs RSV-infected, untreated control mice; FIG. 6
Procedure: as §1, §2
Pulmonary viral assay and clinical measurements. […] Respiratory rates (breaths per min) were determined by counting over a period of 2-3 mins. […]

[4] = system: estrogen-dependent and independent breast cancer cells; details: isolated DIM in cell culture; cited from earlier work
[5] = system: Recombinant RSV virus producing green fluorescent protein (gRSV); assay: Intracellular RSV growth, real-time fluorescence of GFP-producing RSV (gRSV) in A549 cells; assay type: cell-based, Respiratory Syncytial Virus; details: cultured A549 cells; beginning 12 hours after addition of nM DIM (70, 210, 700 nM); FIG. 3
Description: Levels of Intracellular RSV Growth—A real-time fluorescence measurement of live infected cells was utilized to determine the intracellular levels of RSV. Quantitation of real-time RSV growth in live cells was accomplished using a strain of RSV virus which produces florescent protein. Recombinant RSV virus producing green fluorescent protein (GFP) (‘green RSV’, abbreviated as ‘gRSV’) was kindly provided by Dr. Mark Peeples (Columbus Children's Res. Inst., Ohio). A549 cell monolayers were infected with the gRSV in the presence of indicated concentrations of DIM, and were periodically observed by fluorescence microscopy. For quantification, the fluorescence was measured in a standard plate-reader.

## c1ccc2c(Cc3c[nH]c4ccccc34)c[nH]c2c1 [DIM, 3,3′-diindolylmethane]
[1]
  apoptosis in mouse lung homogenate: activated Caspase 3: increased apoptosis in lung tissue homogenate; also recorded: increased levels of apoptosis-specific, activated Caspase 3
[2]
  pathology score on histologic examination: reduced pathology score
  pulmonary RSV titers: reduction of pulmonary RSV titers
[3]
  respiratory rate: normalized respiratory rate; also recorded: lower respiratory rate
[4]
  apoptosis effects: apoptosis promoting effects
[5]
  intracellular RSV activity (growth): reduced intracellular RSV growth; also recorded: significantly reduced

— patent US8552052B2, “Use of diindolylmethane-related indoles for the treatment and prevention of respiratory syncytial virus associated conditions” (BioResponse, L.L.C., priority 2004, dated 2013)
